Where “and” joins values, the source holds several entries; their conditions need not be identical. Equal entries are not always repeated.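 Five concentrations, 48 hours, 96-well plates. GI50 = concentration required for 50% inhibition of growth. At the TGI there is no net growth.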
Columns and labels:
Assay in all cases: NCI tumour cell line growth inhibition, 48 h
[1] = system: 786-0 renal
[2] = system: A498 renal
[3] = system: A549 NSCLC
[4] = system: ACHN renal
[5] = system: BT-549 breast
[6] = system: CAKI-1 renal
[7] = system: CCRF-CEM leukemia
[8] = system: COLO 205 colon
[9] = system: DU-145 prostate
[10] = system: EKVX NSCLC
[11] = system: HCC-2998 colon
[12] = system: HCT-116 colon
[13] = system: HCT-15 colon
[14] = system: HL-60(TB) leukemia
[15] = system: HOP-62 NSCLC
[16] = system: HOP-92 NSCLC
[17] = system: HS 578T breast
[18] = system: HT29 colon
[19] = system: IGROV1 ovarian
[20] = system: K-562 leukemia
[21] = system: KM12 colon
[22] = system: LOX IMVI melanoma
[23] = system: M14 melanoma
[24] = system: MALME-3M melanoma
[25] = system: MCF7 breast
[26] = system: MDA-MB-231 breast
[27] = system: MDA-MB-435
[28] = system: MOLT-4 leukemia
[29] = system: NCI-H226 lung
[30] = system: NCI-H23 lung
[31] = system: NCI-H460 lung
[32] = system: NCI-H522 lung
[33] = system: NCI/ADR-RES ovarian
[34] = system: OVCAR-3 ovarian
[35] = system: OVCAR-4 ovarian
[36] = system: OVCAR-5 ovarian
[37] = system: OVCAR-8 ovarian
[38] = system: PC-3 prostate
[39] = system: RPMI-8226 leukemia
[40] = system: RXF 393 renal
[41] = system: SF-268 CNS
[42] = system: SF-295 CNS
[43] = system: SF-539 CNS
[44] = system: SK-MEL-2 melanoma
[45] = system: SK-MEL-28 melanoma
[46] = system: SK-MEL-5 melanoma
[47] = system: SK-OV-3 ovarian
[48] = system: SN12C renal
[49] = system: SNB-19 CNS
[50] = system: SNB-75 CNS
[51] = system: SR leukemia
[52] = system: SW-620 colon
[53] = system: T-47D breast
[54] = system: TK-10 renal
[55] = system: U251 CNS
[56] = system: UACC-257 melanoma
[57] = system: UACC-62 melanoma
[58] = system: UO-31 renal

**Q.** O=C(NNc1nc2cc(F)cc(F)c2n2cccc12)c1cccnn1 was tested. Which GI50 [1] did it give?
**A.** 208 nM and 261 nM

**Q.** What about the TGI [1] of the same molecule?
**A.** 2.46 µM and 6.24 µM

**Q.** What about the GI50 [2] of the same molecule?
**A.** 868 nM and 428 nM

**Q.** What about the TGI [2] of the same molecule?
**A.** 4.85 µM and 3.08 µM

**Q.** What about the GI50 [3] of the same molecule?
**A.** 378 nM and 215 nM

**Q.** What about the TGI [3] of the same molecule?
**A.** 5.72 µM and 3.74 µM

**Q.** And the GI50 [4]?
**A.** 164 nM and 165 nM

**Q.** What about the TGI [4] of the same molecule?
**A.** 4.14 µM and 3.17 µM

**Q.** And the GI50 [5]?
**A.** 520 nM and 291 nM

**Q.** What about the TGI [5] of the same molecule?
**A.** 2.26 µM and 9.43 µM

**Q.** And the GI50 [6]?
**A.** 291 nM and 183 nM

**Q.** What about the TGI [6] of the same molecule?
**A.** 4.96 µM and 5.28 µM

**Q.** And the GI50 [7]?
**A.** 163 nM and 43.2 nM

**Q.** And the GI50 [8]?
**A.** 533 nM

**Q.** And the TGI [8]?
**A.** 5.06 µM

**Q.** What about the GI50 [9] of the same molecule?
**A.** 507 nM and 371 nM

**Q.** What about the TGI [9] of the same molecule?
**A.** 6.23 µM and 4.08 µM

**Q.** What about the GI50 [10] of the same molecule?
**A.** 350 nM and 164 nM

**Q.** And the TGI [10]?
**A.** 13.3 µM and 3.26 µM

**Q.** What about the GI50 [11] of the same molecule?
**A.** 612 nM and 436 nM

**Q.** What about the TGI [11] of the same molecule?
**A.** 11.3 µM and 18 µM

**Q.** What about the GI50 [12] of the same molecule?
**A.** 151 nM

**Q.** What about the TGI [12] of the same molecule?
**A.** 916 nM

**Q.** And the GI50 [13]?
**A.** 124 nM and 48.3 nM

**Q.** What about the TGI [13] of the same molecule?
**A.** 13.5 µM and > 100 µM

**Q.** And the GI50 [14]?
**A.** 765 nM and 259 nM

**Q.** And the GI50 [15]?
**A.** 206 nM and 67.7 nM

**Q.** And the TGI [15]?
**A.** 4.77 µM and 5.25 µM

**Q.** And the GI50 [16]?
**A.** 778 nM and 440 nM

**Q.** And the TGI [16]?
**A.** 8.79 µM and 5.34 µM

**Q.** And the GI50 [17]?
**A.** 3790 nM and 1130 nM

**Q.** What about the TGI [17] of the same molecule?
**A.** 30 µM and 36.8 µM

**Q.** What about the GI50 [18] of the same molecule?
**A.** 725 nM and 475 nM

**Q.** What about the TGI [18] of the same molecule?
**A.** 30 µM and 27.2 µM

**Q.** What about the GI50 [19] of the same molecule?
**A.** 210 nM and 211 nM

**Q.** And the TGI [19]?
**A.** 4.68 µM and 3.64 µM

**Q.** And the GI50 [20]?
**A.** 817 nM and 263 nM

**Q.** And the GI50 [21]?
**A.** 507 nM and 185 nM

**Q.** What about the TGI [21] of the same molecule?
**A.** 30 µM and > 100 µM

**Q.** What about the GI50 [22] of the same molecule?
**A.** 295 nM

**Q.** What about the TGI [22] of the same molecule?
**A.** 3.57 µM

**Q.** And the GI50 [23]?
**A.** 164 nM and 179 nM

**Q.** What about the GI50 [24] of the same molecule?
**A.** 784 nM and 1020 nM

**Q.** And the TGI [24]?
**A.** 6.18 µM and 5.97 µM

**Q.** What about the GI50 [25] of the same molecule?
**A.** 453 nM and 260 nM

**Q.** What about the TGI [25] of the same molecule?
**A.** 5.67 µM and 2.56 µM

**Q.** And the GI50 [26]?
**A.** 820 nM and 784 nM

**Q.** What about the TGI [26] of the same molecule?
**A.** 10.3 µM and > 100 µM

**Q.** What about the GI50 [27] of the same molecule?
**A.** 1270 nM and 599 nM

**Q.** And the TGI [27]?
**A.** 30 µM and 15.8 µM

**Q.** And the GI50 [28]?
**A.** 186 nM and 167 nM

**Q.** What about the GI50 [29] of the same molecule?
**A.** 341 nM and 799 nM

**Q.** And the TGI [29]?
**A.** 5.64 µM and 7.42 µM

**Q.** And the GI50 [30]?
**A.** 575 nM

**Q.** And the TGI [30]?
**A.** > 100 µM

**Q.** What about the GI50 [31] of the same molecule?
**A.** 147 nM and 61 nM

**Q.** What about the TGI [31] of the same molecule?
**A.** 3470 nM and 1280 nM

**Q.** And the GI50 [32]?
**A.** 890 nM and 254 nM

**Q.** And the GI50 [33]?
**A.** 270 nM and 161 nM

**Q.** What about the TGI [33] of the same molecule?
**A.** 3.85 µM and 2.19 µM

**Q.** And the GI50 [34]?
**A.** 234 nM and 128 nM

**Q.** What about the TGI [34] of the same molecule?
**A.** 5.19 µM and 10.7 µM

**Q.** And the GI50 [35]?
**A.** 212 nM

**Q.** And the TGI [35]?
**A.** 8.52 µM

**Q.** And the GI50 [36]?
**A.** 847 nM and 1390 nM

**Q.** What about the TGI [36] of the same molecule?
**A.** 30 µM and 31.6 µM

**Q.** What about the GI50 [37] of the same molecule?
**A.** 362 nM and 246 nM

**Q.** And the TGI [37]?
**A.** 30 µM and > 100 µM

**Q.** And the GI50 [38]?
**A.** 478 nM and 296 nM

**Q.** And the TGI [38]?
**A.** 30 µM and > 100 µM

**Q.** And the GI50 [39]?
**A.** 716 nM and 286 nM

**Q.** What about the TGI [39] of the same molecule?
**A.** 30 µM and 3.06 µM

**Q.** What about the GI50 [40] of the same molecule?
**A.** 865 nM and 242 nM

**Q.** What about the TGI [40] of the same molecule?
**A.** 3610 nM and 2170 nM

**Q.** And the GI50 [41]?
**A.** 359 nM and 209 nM

**Q.** And the TGI [41]?
**A.** 30 µM and 11.4 µM

**Q.** And the GI50 [42]?
**A.** 175 nM and 73.5 nM

**Q.** And the TGI [42]?
**A.** 4.6 µM and 2.14 µM

**Q.** What about the GI50 [43] of the same molecule?
**A.** 396 nM and 314 nM

**Q.** What about the TGI [43] of the same molecule?
**A.** 3.87 µM and 3.35 µM

**Q.** And the GI50 [44]?
**A.** 1330 nM and 1170 nM

**Q.** What about the TGI [44] of the same molecule?
**A.** 19.8 µM and 26.2 µM

**Q.** What about the GI50 [45] of the same molecule?
**A.** 517 nM and 528 nM

**Q.** What about the TGI [45] of the same molecule?
**A.** 12.5 µM and 21.6 µM

**Q.** And the GI50 [46]?
**A.** 504 nM and 312 nM

**Q.** What about the TGI [46] of the same molecule?
**A.** 4.95 µM and 2.39 µM

**Q.** And the GI50 [47]?
**A.** 441 nM and 344 nM

**Q.** And the TGI [47]?
**A.** 6.48 µM and 6.7 µM

**Q.** What about the GI50 [48] of the same molecule?
**A.** 500 nM and 554 nM

**Q.** What about the TGI [48] of the same molecule?
**A.** 16.4 µM and 19.9 µM

**Q.** What about the GI50 [49] of the same molecule?
**A.** 409 nM and 337 nM

**Q.** What about the TGI [50] of the same molecule?
**A.** 17.9 µM and 7.79 µM

**Q.** What about the GI50 [51] of the same molecule?
**A.** 147 nM and 43.1 nM

**Q.** And the GI50 [52]?
**A.** 363 nM and 289 nM

**Q.** What about the TGI [52] of the same molecule?
**A.** 21.1 µM and > 100 µM

**Q.** And the GI50 [53]?
**A.** 632 nM and 322 nM

**Q.** And the TGI [53]?
**A.** 11.3 µM and 4.18 µM

**Q.** And the GI50 [54]?
**A.** 792 nM and 317 nM

**Q.** And the TGI [54]?
**A.** 20.8 µM and 11.3 µM

**Q.** And the GI50 [55]?
**A.** 241 nM and 113 nM

**Q.** And the TGI [55]?
**A.** 13.3 µM and 4.42 µM

**Q.** And the GI50 [56]?
**A.** 868 nM and 395 nM

**Q.** And the TGI [56]?
**A.** 3.41 µM and 3.63 µM

**Q.** And the GI50 [57]?
**A.** 305 nM and 329 nM

**Q.** And the GI50 [58]?
**A.** 118 nM and 51.9 nM

**Q.** And the TGI [58]?
**A.** 3630 nM and 1770 nM

From PubChem BioAssay (NCI)
